Assay results published in ChEMBL document CHEMBL1139677, “DNA interstrand crosslinking agents: synthesis, DNA interactions, and cytotoxicity of dimeric achiral seco-amino-CBI and conjugates of achiral seco-amino-CBI with pyrrolobenzodiazepine (PBD)” (Bioorg Med Chem Lett, 2006).
pIC50: −log10 of the molar value. The source made the active and inactive calls. The rule behind the calls is not given here.

Legend:
P815 [1] = assay: Cytotoxicity against mouse P815 cells after 3 days; assay type: cell-based; details: P815, 72 h
[2] = Induction of linear pBR322 DNA interstrand crosslinking; assay type: functional
P815 [3] = assay: Cell cycle arrest in mouse P815 cells by accumulation at subG0 phase at 0.026 uM; assay type: functional
[4] = Induction of supercoiled pBR322 DNA strand cleavage at 6.6 uM; assay type: functional
[5] = Induction of linear pBR322 DNA interstrand crosslinking at 10 uM; assay type: functional
[6] = Induction of pBR322 DNA alkylation at 1 uM by thermally induced cleavage assay; assay type: functional
[7] = Induction of pBR322 DNA alkylation at 10 uM by thermally induced cleavage assay; assay type: functional
[8] = Induction of pBR322 DNA alkylation at 0.1 uM by thermally induced cleavage assay; assay type: functional
[9] = Induction of supercoiled pBR322 DNA strand cleavage; assay type: functional
[10] = Induction of pBR322 DNA alkylation at 100 uM by thermally induced cleavage assay; assay type: functional

## COc1cc2cc(C(=O)Nc3cc(N)c4ccccc4c3CCCl)[nH]c2c(OC)c1OC [CENTANAMYCIN]
P815 [1]
  pIC50: 7.17

## C=C1C[C@H]2C=Nc3cc(OCCCOc4cc5c(cc4OC)C(=O)N4CC(=C)C[C@H]4C=N5)c(OC)cc3C(=O)N2C1
[2]
  Activity: Active

## COc1cc2c(cc1OCCC(=O)Nc1ccc3oc(C(=O)Nc4cc(N)c5ccccc5c4CCCl)cc3c1)N=C[C@@H]1CCCN1C2=O
P815 [1]
  pIC50: 7.59
P815 [3]
  Activity: 21%
[4]
  Activity: 16%
[5]
  Activity: Active
[6]
  Activity: Active
[7]
  Activity: Active

## COc1cc2cc(C(=O)N3CC(CCl)c4c3cc(O)c3ccccc43)[nH]c2c(OC)c1OC (stereo not given)
P815 [1]
  pIC50: 8.07

## COc1cc2c(cc1OCCC(=O)Nc1ccc3oc(C(=O)Nc4cc(O)ccc4CCCl)cc3c1)N=C[C@@H]1CCCN1C2=O
P815 [1]
  pIC50: 6.25

## COc1c(O)c2c(c3cc(C(=O)N4CCc5c4c(O)c(OC)c4[nH]c(C(=O)N6C[C@H]7C[C@@]78C6=CC(=O)c6[nH]cc(C)c68)cc54)[nH]c13)CCN2C(N)=O
[8]
  Activity: Active

## Nc1cc(NC(=O)c2cc3cc(NC(=O)Nc4ccc5oc(C(=O)Nc6cc(N)c7ccccc7c6CCCl)cc5c4)ccc3o2)c(CCCl)c2ccccc12
P815 [1]
  pIC50: 4.38

## COC(=O)CCOc1cc2c(cc1OC)C(=O)N1CCC[C@H]1C=N2
P815 [1]
  pIC50: 4.26
[9]
  Activity: 4%
[10]
  Activity: inactive
